According to patent US8969325B2, “TRPV1 antagonists” (AbbVie Inc., priority 2011, dated 2015):

Assays:
[1] = molecular target: T1, human TRPV1 (Homo sapiens (Human), UniProt Q8NER1); experiment: Capsaicin Activation Assay (intracellular Ca2+, FLIPR); assay type: cell-based; details: recombinant HEK293 cells expressing hTRPV1, 50 nM capsaicin
Summary of the method: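 Stably transfected HEK293 cells expressing human TRPV1 cDNA, plated the day before in poly-D-lysine plates. Compounds serially diluted from 10 mM DMSO stocks; intracellular Ca2+ fluorescence read on FLIPR at 1 to 5 second intervals.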

[2] = molecular target: T1, human TRPV1; experiment: Acid Activation Assay (pH 5.0, intracellular Ca2+, FLIPR); assay type: cell-based; details: percentage of the maximal pH 5.0-induced response remaining; recombinant HEK293 hTRPV1 cells; maximum concentration tested 37.5 μM
Summary of the method: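 HEK293 cells stably expressing recombinant hTRPV1, loaded with Calcium-4 dye 90-120 min at 25° C. Compounds added over a 12-point half-log range (top 37.5 μM), then pH 5.0 DPBS/MES challenge after 3 min; FLIPR peak fluorescence over baseline given as % of maximal pH 5.0 response.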

T1 sequence (Q8NER1 whole entry): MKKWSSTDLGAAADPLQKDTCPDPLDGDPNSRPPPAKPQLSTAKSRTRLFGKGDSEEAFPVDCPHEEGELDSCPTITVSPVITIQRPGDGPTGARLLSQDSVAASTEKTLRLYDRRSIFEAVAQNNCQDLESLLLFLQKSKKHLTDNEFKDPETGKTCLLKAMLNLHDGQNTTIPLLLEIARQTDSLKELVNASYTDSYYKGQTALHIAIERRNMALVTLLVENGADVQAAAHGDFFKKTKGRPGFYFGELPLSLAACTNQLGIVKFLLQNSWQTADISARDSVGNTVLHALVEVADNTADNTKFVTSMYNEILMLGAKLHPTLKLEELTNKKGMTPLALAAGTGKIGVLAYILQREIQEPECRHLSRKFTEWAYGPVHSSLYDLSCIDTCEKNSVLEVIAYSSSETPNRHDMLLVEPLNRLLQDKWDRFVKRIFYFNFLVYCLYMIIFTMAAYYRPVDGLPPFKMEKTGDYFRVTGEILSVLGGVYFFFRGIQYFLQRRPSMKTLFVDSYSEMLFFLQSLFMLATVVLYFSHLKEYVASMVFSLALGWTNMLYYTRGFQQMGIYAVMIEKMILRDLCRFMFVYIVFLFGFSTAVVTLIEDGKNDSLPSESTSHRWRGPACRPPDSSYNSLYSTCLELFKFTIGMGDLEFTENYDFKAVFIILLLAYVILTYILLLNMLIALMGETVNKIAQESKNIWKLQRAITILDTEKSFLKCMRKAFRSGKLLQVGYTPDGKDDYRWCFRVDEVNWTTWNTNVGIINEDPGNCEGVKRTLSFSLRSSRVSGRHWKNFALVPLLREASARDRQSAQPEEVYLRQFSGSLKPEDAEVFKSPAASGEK

IC50 [1] [nM]	human TRPV1 H^+ (max % remain) [2] [%]	SMILES
100	54	CN1Cc2ccc(NC(=O)N[C@@H]3CC(CF)(CF)Oc4cc(C(F)(F)F)ccc43)cc2NC1=O [Example 173, 1-[(4R)-2,2-bis(fluoromethyl)-7-(trifluoromethyl)-3,4-dihydro-2H-chromen-4-yl]-3-(3-methyl-2-oxo-1,2,3,4-tetrahydroquinazolin-7-yl)urea]
130	52	CN1Cc2ccc(NC(=O)N[C@@H]3CCc4cc(C(F)(F)F)ccc43)cc2NC1=O [Example 174, 1-(3-methyl-2-oxo-1,2,3,4-tetrahydroquinazolin-7-yl)-3-[(1R)-5-(trifluoromethyl)-2,3-dihydro-1H-inden-1-yl]urea]
4100	62	CN1Cc2ccc(NC(=O)N[C@@H]3CCOc4ccccc43)cc2NC1=O [Example 175, 1-[(4R)-3,4-dihydro-2H-chromen-4-yl]-3-(3-methyl-2-oxo-1,2,3,4-tetrahydroquinazolin-7-yl)urea]
120	50	CN1Cc2ccc(NC(=O)N[C@@H]3CC(C)(C)Oc4cc(F)ccc43)cc2NC1=O [Example 176, 1-[(4R)-7-fluoro-2,2-dimethyl-3,4-dihydro-2H-chromen-4-yl]-3-(3-methyl-2-oxo-1,2,3,4-tetrahydroquinazolin-7-yl)urea]
91	59	CCC1(CC)C[C@@H](NC(=O)Nc2ccc3c(c2)NC(=O)N(C)C3)c2cccc(F)c2O1 [Example 177, 1-[(4R)-2,2-diethyl-8-fluoro-3,4-dihydro-2H-chromen-4-yl]-3-(3-methyl-2-oxo-1,2,3,4-tetrahydroquinazolin-7-yl)urea]
72	52	CCC1(CC)C[C@@H](NC(=O)Nc2ccc3c(c2)NC(=O)N(C)C3)c2ccccc2O1 [Example 178, 1-[(4R)-2,2-diethyl-3,4-dihydro-2H-chromen-4-yl]-3-(3-methyl-2-oxo-1,2,3,4-tetrahydroquinazolin-7-yl)urea]
190	37	CN1Cc2ccc(NC(=O)N[C@@H]3CCc4cc(C(C)(C)C)ccc43)cc2NC1=O [Example 179, 1-[(1R)-5-tert-butyl-2,3-dihydro-1H-inden-1-yl]-3-(3-methyl-2-oxo-1,2,3,4-tetrahydroquinazolin-7-yl)urea]
230	12	CCC1(CC)C[C@@H](NC(=O)Nc2ccc3c(c2)NC(=O)N(C)C3)c2ccc(C(F)(F)F)cc2O1 [Example 180, 1-[(4R)-2,2-diethyl-7-(trifluoromethyl)-3,4-dihydro-2H-chromen-4-yl]-3-(3-methyl-2-oxo-1,2,3,4-tetrahydroquinazolin-7-yl)urea]
210	28	CCC1(CC)C[C@@H](NC(=O)Nc2ccc3c(c2)NC(=O)N(C)C3)c2ccc(Cl)cc2O1 [Example 181, 1-[(4R)-7-chloro-2,2-diethyl-3,4-dihydro-2H-chromen-4-yl]-3-(3-methyl-2-oxo-1,2,3,4-tetrahydroquinazolin-7-yl)urea]
380	29	CCC1(CC)C[C@@H](NC(=O)Nc2ccc3c(c2)NC(=O)N(C)C3)c2ccc(Cl)c(Cl)c2O1 [Example 182, 1-[(4R)-7,8-dichloro-2,2-diethyl-3,4-dihydro-2H-chromen-4-yl]-3-(3-methyl-2-oxo-1,2,3,4-tetrahydroquinazolin-7-yl)urea]
120	42	CN1Cc2ccc(NC(=O)N[C@@H]3CC(CF)(CF)Oc4cc(OC(F)(F)F)ccc43)cc2NC1=O [Example 183, 1-[(4R)-2,2-bis(fluoromethyl)-7-(trifluoromethoxy)-3,4-dihydro-2H-chromen-4-yl]-3-(3-methyl-2-oxo-1,2,3,4-tetrahydroquinazolin-7-yl)urea]
86	44	CN1Cc2ccc(NC(=O)N[C@@H]3CC(C)(C)Oc4cc(C(F)(F)F)ccc43)cc2NC1=O [Example 184, 1-[(4R)-2,2-dimethyl-7-(trifluoromethyl)-3,4-dihydro-2H-chromen-4-yl]-3-(3-methyl-2-oxo-1,2,3,4-tetrahydroquinazolin-7-yl)urea]
210	61	CCCC1(CCC)C[C@@H](NC(=O)Nc2ccc3c(c2)NC(=O)N(C)C3)c2cc(F)ccc2O1 [Example 185, 1-[(4R)-6-fluoro-2,2-dipropyl-3,4-dihydro-2H-chromen-4-yl]-3-(3-methyl-2-oxo-1,2,3,4-tetrahydroquinazolin-7-yl)urea]
1500	58	CN1Cc2ccc(NC(=O)N[C@@H]3CC(CF)(CF)Oc4ccc(F)cc43)cc2NC1=O [Example 186, 1-[(4R)-6-fluoro-2,2-bis(fluoromethyl)-3,4-dihydro-2H-chromen-4-yl]-3-(3-methyl-2-oxo-1,2,3,4-tetrahydroquinazolin-7-yl)urea]
760	50	CN1Cc2ccc(NC(=O)N[C@@H]3CC(CF)(CF)Oc4c(F)cc(F)cc43)cc2NC1=O [Example 187, 1-[(4R)-6,8-difluoro-2,2-bis(fluoromethyl)-3,4-dihydro-2H-chromen-4-yl]-3-(3-methyl-2-oxo-1,2,3,4-tetrahydroquinazolin-7-yl)urea]
290	46	CN1Cc2ccc(NC(=O)N[C@@H]3CC4(CCC4)Oc4ccc(F)cc43)cc2NC1=O [Example 188, 1-[(4R)-6-fluoro-3,4-dihydrospiro[chromene-2,1′-cyclobutan]-4-yl]-3-(3-methyl-2-oxo-1,2,3,4-tetrahydroquinazolin-7-yl)urea]
200	40	CCC1(CC)C[C@@H](NC(=O)Nc2ccc3c(c2)NC(=O)N(C)C3)c2cc(F)ccc2O1 [Example 189, 1-[(4R)-2,2-diethyl-6-fluoro-3,4-dihydro-2H-chromen-4-yl]-3-(3-methyl-2-oxo-1,2,3,4-tetrahydroquinazolin-7-yl)urea]
450	79	CCCC1(CCC)C[C@@H](NC(=O)Nc2ccc3c(c2)NC(=O)N(C)C3)c2cccc(F)c2O1 [Example 190, 1-[(4R)-8-fluoro-2,2-dipropyl-3,4-dihydro-2H-chromen-4-yl]-3-(3-methyl-2-oxo-1,2,3,4-tetrahydroquinazolin-7-yl)urea]
450	19	CCC1(CC)C[C@@H](NC(=O)Nc2ccc3c(c2)NC(=O)N(C)C3)c2ccc(OC(F)(F)F)cc2O1 [Example 191, 1-[(4R)-2,2-diethyl-7-(trifluoromethoxy)-3,4-dihydro-2H-chromen-4-yl]-3-(3-methyl-2-oxo-1,2,3,4-tetrahydroquinazolin-7-yl)urea]
280	53	CN1Cc2ccc(NC(=O)N[C@@H]3CC(CF)(CF)Oc4c3ccc(Cl)c4F)cc2NC1=O [Example 192, 1-[(4R)-7-chloro-8-fluoro-2,2-bis(fluoromethyl)-3,4-dihydro-2H-chromen-4-yl]-3-(3-methyl-2-oxo-1,2,3,4-tetrahydroquinazolin-7-yl)urea]
270	56	CN1Cc2ccc(NC(=O)N[C@@H]3CC(C)(C)Oc4ccccc43)cc2NC1=O [Example 193, 1-[(4R)-2,2-dimethyl-3,4-dihydro-2H-chromen-4-yl]-3-(3-methyl-2-oxo-1,2,3,4-tetrahydroquinazolin-7-yl)urea]
1800	52	CN1Cc2ccc(NC(=O)N[C@H]3CCOc4cc(OC(F)(F)F)ccc43)cc2NC1=O [Example 194, 1-(3-methyl-2-oxo-1,2,3,4-tetrahydroquinazolin-7-yl)-3-[(4S)-7-(trifluoromethoxy)-3,4-dihydro-2H-chromen-4-yl]urea]
280	49	CN1Cc2ccc(NC(=O)N[C@@H]3CCOc4cc(OC(F)(F)F)ccc43)cc2NC1=O [Example 195, 1-(3-methyl-2-oxo-1,2,3,4-tetrahydroquinazolin-7-yl)-3-[(4R)-7-(trifluoromethoxy)-3,4-dihydro-2H-chromen-4-yl]urea]
2700	53	COCC1(COC)C[C@@H](NC(=O)Nc2ccc3c(c2)NC(=O)N(C)C3)c2cc(F)ccc2O1 [Example 196, 1-[(4R)-6-fluoro-2,2-bis(methoxymethyl)-3,4-dihydro-2H-chromen-4-yl]-3-(3-methyl-2-oxo-1,2,3,4-tetrahydroquinazolin-7-yl)urea]
1100	57	CN1Cc2ccc(NC(=O)N[C@@H]3CC(CF)(CF)Oc4ccccc43)cc2NC1=O [Example 197, 1-[(4R)-2,2-bis(fluoromethyl)-3,4-dihydro-2H-chromen-4-yl]-3-(3-methyl-2-oxo-1,2,3,4-tetrahydroquinazolin-7-yl)urea]
350	55	CN1Cc2ccc(NC(=O)N[C@@H]3CC(CF)(CF)Oc4c(F)cccc43)cc2NC1=O [Example 198, 1-[(4R)-8-fluoro-2,2-bis(fluoromethyl)-3,4-dihydro-2H-chromen-4-yl]-3-(3-methyl-2-oxo-1,2,3,4-tetrahydroquinazolin-7-yl)urea]
6700	58	CN1Cc2ccc(NC(=O)N[C@@H]3CCOc4ccc(F)cc43)cc2NC1=O [Example 199, 1-[(4R)-6-fluoro-3,4-dihydro-2H-chromen-4-yl]-3-(3-methyl-2-oxo-1,2,3,4-tetrahydroquinazolin-7-yl)urea]
